Measurements published in patent US20100267952A1, “USE OF NOVEL COMPOUND HAVING AFFINITY FOR AMYLOID, AND PROCESS FOR PRODUCTION OF THE SAME” (NIHON MEDI-PHYSICS CO., LTD., priority 2007, published 2010).

Assays:
[1] = Radioactive distribution ratio in each organ; format: in vivo, SD rat
Method: 0.2 mL each of the prepared sample solution was administered under non-thiopental anesthesia into the tail vein of the above rat. The rats were sacrificed by bleeding from abdominal artery, and each organ shown in Table 3 was removed 5, 30, 60 and 180 minutes after the administration. […] Also, radioactivity of the whole body of the rat after removal of the organs (hereinafter referred to as rest of the whole body) was measured. Using these measurement results, radioactive distribution per unit weight of each organ (% ID/g) at the respective time points was calculated in accordance with the following formula (3).
Three animals were used for the experiment at the respective time points.
R^T: Radioactivity of target organ (cpm) R^S: Sum of radioactivity of all the organs (cpm) R^R: Radioactivity of the rest of the whole body (cpm) M^T: Mass of target organ (g)

[2] = target: T1, amyloid (aggregated Aβ1-42) injected into amygdaloid nucleus (Homo sapiens, UniProt P05067); assay: Confirmation of imaging of amyloid in brain (autoradiogram of brain slice, Aβ1-42 injected rat); format: in vivo, male Wistar rat; settings: tail vein, 11-15 MBq equivalent, brain removed 60 minutes after injection
T1 construct: Aβ1-42 (Wako) was dissolved in phosphate buffer (pH 7.4); purchased Wako
Method: (1) Aβ1-42 (Wako) was dissolved in phosphate buffer (pH 7.4) and shaken at 37° C. for 72 hours, to obtain a 1 mg/mL suspension of aggregated Aβ (hereinafter referred to as amyloid suspension in this Example).
(2) 2.5 μL (corresponding to 25 μg) of the amyloid suspension was injected into an amygdaloid nucleus on one side of a male Wistar rat (7-week old). As a control, 2.5 μL of a phosphate buffered physiological saline solution (pH 7.4) was injected into an amygdaloid nucleus on the other side of the rat. The rats were examined 1 day after the injection of the amyloid suspension and the phosphate buffered physiological saline solution (pH 7.4).
This solution was injected under thiopental anesthesia into the rat through the tail vein (dosage: 0.5 mL, dosed radioactivity: 11-15 MBq equivalent).
(4) Brain was removed 60 minutes after the injection to prepare a brain slice of 10 μm in thickness with a microtome (type: CM3050S, manufactured by LEICA). The brain slice was exposed to an imaging plate for 20 hours, and then image analysis was carried out by use of a Bio-imaging Analyzer (type: BAS-2500; manufactured by FUJIFILM Corporation).

[3] = Transferability into brain and clearance (2); format: in vivo, male Wistar rats; settings: rats, intravenous injection, Table 1-10
Method: 0.05 mL each of these solutions was injected under thiopental anesthesia into the tail vein of respective Wistar rats (7-week old). The rats were sacrificed by bleeding from abdominal artery, and brains were removed and subjected to measurement of mass of brains and further subjected to measurement of radioactivity (hereinafter referred to as A in this Example) with a single channel analyzer (detector type: SP-20 manufactured by OHYO KOKEN KOGYO Co., Ltd.) 2, 5, 30 and 60 minutes after the injection. Also, radioactivity (hereinafter referred to as B in this Example) of the rest of the whole body was measured in the same manner as above. Using these measurement results, radioactive distribution per unit weight of brain (% ID/g) at the respective time points were calculated in accordance with the following formula (1-7).
Three animals were used for experiment at the respective time points.

[4] = SD rat, tail vein, 5 min. after administration
[5] = SD rat, tail vein, 30 min. after administration
[6] = SD rat, tail vein, 60 min. after administration
[7] = SD rat, tail vein, 180 min. after administration

T1 sequence (P05067 672-713): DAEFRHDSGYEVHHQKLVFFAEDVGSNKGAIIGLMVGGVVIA

Structure (SMILES): FCCOc1ccc(-c2cn3cc([123I])ccc3n2)cc1 [Compound I-9, 2-[4′-(2″-fluoroethoxy)phenyl]-6-[^123I]iodoimidazo[1,2-a]pyridine]
- excretion / clearance to the outside of the body ([1]; SD rat, tail vein): biliary-excreted rapidly after the administration
- Radioactive distribution per unit weight, Adrenal gland, Average [1, 4]: 3.914 % ID/g
- Radioactive distribution per unit weight, Adrenal gland, Average [1, 5]: 0.457 % ID/g
- Radioactive distribution per unit weight, Adrenal gland, Average [1, 6]: 0.260 % ID/g
- Radioactive distribution per unit weight, Adrenal gland, Average [1, 7]: 0.017 % ID/g
- Radioactive distribution per unit weight, Blood, Average [1, 4]: 0.370 % ID/g
- Radioactive distribution per unit weight, Blood, Average [1, 5]: 0.142 % ID/g
- Radioactive distribution per unit weight, Blood, Average [1, 6]: 0.108 % ID/g
- Radioactive distribution per unit weight, Blood, Average [1, 7]: 0.074 % ID/g
- Radioactive distribution per unit weight, Bone, Average [1, 4]: 0.187 % ID/g
- Radioactive distribution per unit weight, Bone, Average [1, 5]: 0.067 % ID/g
- Radioactive distribution per unit weight, Bone, Average [1, 6]: 0.045 % ID/g
- Radioactive distribution per unit weight, Bone, Average [1, 7]: 0.032 % ID/g
- Radioactive distribution per unit weight, Brain, Average [1, 4]: 0.701 % ID/g
- Radioactive distribution per unit weight, Brain, Average [1, 5]: 0.067 % ID/g
- Radioactive distribution per unit weight, Brain, Average [1, 6]: 0.026 % ID/g
- Radioactive distribution per unit weight, Brain, Average [1, 7]: 0.007 % ID/g
- Radioactive distribution per unit weight, Heart, Average [1, 4]: 0.551 % ID/g
- Radioactive distribution per unit weight, Heart, Average [1, 5]: 0.111 % ID/g
- Radioactive distribution per unit weight, Heart, Average [1, 6]: 0.059 % ID/g
- Radioactive distribution per unit weight, Heart, Average [1, 7]: 0.030 % ID/g
- Radioactive distribution per unit weight, Kidney, Average [1, 4]: 1.114 % ID/g
- Radioactive distribution per unit weight, Kidney, Average [1, 5]: 0.560 % ID/g
- Radioactive distribution per unit weight, Kidney, Average [1, 6]: 0.302 % ID/g
- Radioactive distribution per unit weight, Kidney, Average [1, 7]: 0.108 % ID/g
- Radioactive distribution per unit weight, Large intestine, Average [1, 4]: 0.106 % ID/g
- Radioactive distribution per unit weight, Large intestine, Average [1, 5]: 0.070 % ID/g
- Radioactive distribution per unit weight, Large intestine, Average [1, 6]: 0.074 % ID/g
- Radioactive distribution per unit weight, Large intestine, Average [1, 7]: 5.241 % ID/g
- Radioactive distribution per unit weight, Liver, Average [1, 4]: 2.399 % ID/g
- Radioactive distribution per unit weight, Liver, Average [1, 5]: 0.337 % ID/g
- Radioactive distribution per unit weight, Liver, Average [1, 6]: 0.178 % ID/g
- Radioactive distribution per unit weight, Liver, Average [1, 7]: 0.067 % ID/g
- Radioactive distribution per unit weight, Lung, Average [1, 4]: 0.647 % ID/g
- Radioactive distribution per unit weight, Lung, Average [1, 5]: 0.192 % ID/g
- Radioactive distribution per unit weight, Lung, Average [1, 6]: 0.130 % ID/g
- Radioactive distribution per unit weight, Lung, Average [1, 7]: 0.074 % ID/g
- Radioactive distribution per unit weight, Marrow, Average [1, 4]: 0.815 % ID/g
- Radioactive distribution per unit weight, Marrow, Average [1, 5]: 0.075 % ID/g
- Radioactive distribution per unit weight, Marrow, Average [1, 6]: 0.000 % ID/g
- Radioactive distribution per unit weight, Marrow, Average [1, 7]: 0.000 % ID/g
- Radioactive distribution per unit weight, Muscle, Average [1, 4]: 0.239 % ID/g
- Radioactive distribution per unit weight, Muscle, Average [1, 5]: 0.052 % ID/g
- Radioactive distribution per unit weight, Muscle, Average [1, 6]: 0.031 % ID/g
- Radioactive distribution per unit weight, Muscle, Average [1, 7]: 0.016 % ID/g
- Radioactive distribution per unit weight, Pancreas, Average [1, 4]: 0.650 % ID/g
- Radioactive distribution per unit weight, Pancreas, Average [1, 5]: 0.236 % ID/g
- Radioactive distribution per unit weight, Pancreas, Average [1, 6]: 0.115 % ID/g
- Radioactive distribution per unit weight, Pancreas, Average [1, 7]: 0.073 % ID/g
- Radioactive distribution per unit weight, Small intestine, Average [1, 4]: 1.259 % ID/g
- Radioactive distribution per unit weight, Small intestine, Average [1, 5]: 6.598 % ID/g
- Radioactive distribution per unit weight, Small intestine, Average [1, 6]: 8.235 % ID/g
- Radioactive distribution per unit weight, Small intestine, Average [1, 7]: 2.657 % ID/g
- Radioactive distribution per unit weight, Spleen, Average [1, 4]: 0.442 % ID/g
- Radioactive distribution per unit weight, Spleen, Average [1, 5]: 0.092 % ID/g
- Radioactive distribution per unit weight, Spleen, Average [1, 6]: 0.069 % ID/g
- Radioactive distribution per unit weight, Spleen, Average [1, 7]: 0.037 % ID/g
- Radioactive distribution per unit weight, Stomach, Average [1, 4]: 0.287 % ID/g
- Radioactive distribution per unit weight, Stomach, Average [1, 5]: 0.619 % ID/g
- Radioactive distribution per unit weight, Stomach, Average [1, 6]: 0.672 % ID/g
- Radioactive distribution per unit weight, Stomach, Average [1, 7]: 0.812 % ID/g
- ratio (% ID/g at 5 minutes after the administration)/(% ID/g at 180 minutes after the administration) ([1]; bone): 6
- ratio (% ID/g at 5 minutes after the administration)/(% ID/g at 180 minutes after the administration) ([1]; brain): 94
- ratio (% ID/g at 5 minutes after the administration)/(% ID/g at 180 minutes after the administration) ([1]; heart): 18
- ratio (% ID/g at 5 minutes after the administration)/(% ID/g at 180 minutes after the administration) ([1]; lung): 9
- ratio (% ID/g at 5 minutes after the administration)/(% ID/g at 180 minutes after the administration) ([1]; pancreas): 9
- accumulation of radioactivity in amygdaloid nucleus on the amyloid-injected side (autoradiogram) [2]: marked accumulation of radioactivity
- Radioactive distribution per unit weight in brain, After 2 min. ([3]; 2 min.): 0.72 % ID/g
- Radioactive distribution per unit weight in brain, After 5 min. ([3]; 5 min.): 0.49 % ID/g
- Radioactive distribution per unit weight in brain, After 30 min. ([3]; 30 min.): 0.07 % ID/g
- Radioactive distribution per unit weight in brain, After 60 min. ([3]; 60 min.): 0.02 % ID/g
